Results from the supplement of paper PMC10307832.

What was measured:
Assay in all cases: relative viability (nuclei count vs DMSO), 5 days (fraction); higher = more cells survive
Afatinib + Luminespib = compound: CN(C)C/C=C/C(=O)Nc1cc2c(Nc3ccc(F)c(Cl)c3)ncnc2cc1O[C@H]1CCOC1 [Afatinib] + CCNC(=O)c1noc(-c2cc(C(C)C)c(O)cc2O)c1-c1ccc(CN2CCOCC2)cc1 [Luminespib] (partner 0.01 µM)
Summary of the method: (§1)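 Relative viability was taken as the ratio of nuclei in treated wells to nuclei in vehicle wells. Lung cancer cell lines in 1536-well plates received compounds by pin tool one day after seeding, either one drug alone or a fixed anchor-drug dose plus five library-drug doses (not always all listed) in √10 steps. Nuclei were counted on 4× images after 5 days of treatment, and values are medians of duplicate plates.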

Afatinib + Lapatinib = compound: CN(C)C/C=C/C(=O)Nc1cc2c(Nc3ccc(F)c(Cl)c3)ncnc2cc1O[C@H]1CCOC1 [Afatinib] + CS(=O)(=O)CCNCc1ccc(-c2ccc3ncnc(Nc4ccc(OCc5cccc(F)c5)c(Cl)c4)c3c2)o1 [Lapatinib] (partner 2 µM)
Summary of the method: as §1

Afatinib + Decitabine = compound: CN(C)C/C=C/C(=O)Nc1cc2c(Nc3ccc(F)c(Cl)c3)ncnc2cc1O[C@H]1CCOC1 [Afatinib] + Nc1ncn([C@H]2C[C@H](O)[C@@H](CO)O2)c(=O)n1 [Decitabine] (partner 2 µM)
Summary of the method: as §1

Afatinib + Olaparib = compound: CN(C)C/C=C/C(=O)Nc1cc2c(Nc3ccc(F)c(Cl)c3)ncnc2cc1O[C@H]1CCOC1 [Afatinib] + O=C(c1cc(Cc2n[nH]c(=O)c3ccccc23)ccc1F)N1CCN(C(=O)C2CC2)CC1 [Olaparib] (partner 8 µM)
Summary of the method: as §1

Cell Line | relative viability (Afatinib + Luminespib; first compound 0.005 µM) | relative viability (Afatinib + Luminespib; first compound 0.01581 µM) | relative viability (Afatinib + Luminespib; first compound 0.05 µM) | relative viability (Afatinib + Luminespib; first compound 0.1581 µM) | relative viability (Afatinib + Luminespib; first compound 0.5 µM) | relative viability (Afatinib + Lapatinib; first compound 0.005 µM) | relative viability (Afatinib + Lapatinib; first compound 0.01581 µM) | relative viability (Afatinib + Lapatinib; first compound 0.05 µM) | relative viability (Afatinib + Lapatinib; first compound 0.1581 µM) | relative viability (Afatinib + Lapatinib; first compound 0.5 µM) | relative viability (Afatinib + Decitabine; first compound 0.005 µM) | relative viability (Afatinib + Decitabine; first compound 0.01581 µM) | relative viability (Afatinib + Decitabine; first compound 0.05 µM) | relative viability (Afatinib + Decitabine; first compound 0.1581 µM) | relative viability (Afatinib + Decitabine; first compound 0.5 µM) | relative viability (Afatinib + Olaparib; first compound 0.005 µM) | relative viability (Afatinib + Olaparib; first compound 0.01581 µM) | relative viability (Afatinib + Olaparib; first compound 0.05 µM) | relative viability (Afatinib + Olaparib; first compound 0.1581 µM) | relative viability (Afatinib + Olaparib; first compound 0.5 µM)
NCI-H1437 | 1.2 | 1.14 | 1.23 | 1.07 | 1.12 | 0.891 | 0.79 | 0.758 | 0.778 | 0.779 | 0.597 | 0.552 | 0.542 | 0.535 | 0.552 | 0.657 | 0.64 | 0.642 | 0.596 | 0.569
NCI-H2009 | 1.08 | 1.04 | 1.13 | 1.02 | 1.08 | 0.964 | 0.934 | 1.07 | 0.995 | 1.01 | 0.398 | 0.383 | 0.357 | 0.366 | 0.358 | 0.578 | 0.699 | 0.743 | 0.648 | 0.665
NCI-H1651 | 0.923 | 0.817 | 1.03 | 0.835 | 0.726 | 0.925 | 0.841 | 0.763 | 0.834 | 0.803 | 0.558 | 0.57 | 0.6 | 0.576 | 0.585 | 0.173 | 0.186 | 0.179 | 0.17 | 0.21
NCI-H1666 | 0.973 | 0.931 | 0.796 | 0.807 | 0.808 | 0.592 | 0.621 | 0.618 | – | 0.834 | 0.702 | 0.67 | 0.642 | 0.562 | 0.657 | 0.78 | 0.792 | 0.75 | 0.712 | 0.681
NCI-H1734 | 0.209 | 0.225 | 0.196 | 0.197 | 0.19 | 1.06 | 1.01 | 1.06 | 1.01 | 1.09 | 0.542 | 0.538 | 0.47 | 0.491 | 0.489 | 0.666 | 0.569 | 0.621 | 0.58 | 0.551
EPLC-272H | 0.239 | 0.482 | 0.228 | 0.267 | 0.172 | 0.941 | 0.826 | 0.941 | 0.863 | 0.924 | 0.355 | 0.328 | 0.359 | 0.309 | 0.348 | 0.567 | 0.776 | 0.727 | 0.734 | 0.595
NCI-H2023 | 0.85 | 0.711 | 0.756 | 0.594 | 0.71 | 0.744 | 0.853 | 0.896 | 0.809 | 0.964 | 0.234 | 0.197 | 0.211 | 0.2 | 0.234 | 0.514 | 0.444 | 0.489 | 0.464 | 0.481
BEN | 0.366 | 0.24 | 0.261 | 0.549 | 0.288 | 0.7 | 0.694 | 0.832 | 0.705 | 0.804 | 0.727 | 0.707 | 0.666 | 0.736 | 0.919 | 1.23 | 1.23 | 1.18 | 1.11 | 1.08
COR-L 105 | 0.678 | 0.476 | 0.445 | 0.307 | 0.272 | 0.311 | 0.385 | 0.344 | 0.31 | 0.343 | 0.552 | 0.433 | 0.415 | 0.338 | 0.356 | 0.737 | 0.483 | 0.422 | 0.331 | 0.34
ABC-1 | 0.938 | 0.717 | 0.538 | 0.2 | 0.857 | 1.15 | 1.16 | 1.32 | 0.932 | 1.05 | 1.09 | – | 1.26 | 0.928 | 1.05 | 0.779 | – | 1.04 | 1.04 | 0.561
HCC-15 | 0.352 | 0.56 | 0.313 | 0.48 | 0.34 | 0.84 | 0.92 | 0.859 | 0.859 | 0.82 | 0.75 | 0.622 | 0.625 | 0.594 | 0.645 | 0.662 | 0.765 | 0.744 | 0.668 | 0.722
NCI-H2170 | 0.831 | 0.671 | 0.449 | 0.163 | 0.231 | 0.297 | 0.283 | 0.268 | 0.269 | 0.315 | 0.459 | 0.469 | 0.405 | 0.176 | 0.2 | 0.624 | 0.598 | 0.475 | 0.169 | 0.155
PC-3 [JPC-3] | 0.54 | 0.402 | 0.445 | 0.277 | 0.415 | 0.445 | 0.425 | 0.428 | 0.472 | 0.416 | 0.564 | 0.52 | 0.553 | 0.449 | 0.492 | 0.608 | 0.453 | 0.472 | 0.456 | 0.476
NCI-H1993 | 0.752 | 0.557 | 0.58 | 0.549 | 0.571 | 0.835 | 0.848 | 1.11 | 1.01 | 0.848 | 0.552 | 0.51 | 0.546 | 0.509 | 0.578 | 0.828 | 0.883 | 0.641 | 0.557 | 0.704
NCI-H358 | 0.27 | 0.0409 | 0.189 | 0.101 | 0.125 | 0.502 | 0.356 | 0.408 | 0.436 | 0.432 | 0.191 | 0.18 | 0.149 | 0.163 | 0.136 | 0.48 | 0.586 | 0.314 | 0.145 | –
NCI-H1915 | 0.807 | 0.848 | 0.772 | 0.743 | 0.596 | 1.02 | 0.944 | 0.994 | 0.959 | 0.876 | 0.269 | 0.268 | 0.272 | 0.268 | 0.269 | 0.255 | – | 0.244 | 0.27 | 0.259
